Measurements from patent US20040220086A1, “Methods and materials for targeting and affecting selected cells” (priority 2001, published 2004).

How the values were obtained:
[1] = cited from earlier work
[2] = system: NADH-oxidase; conditions: plasma membrane redox enzyme; cited from earlier work
[3] = system: metastatic sarcoma; conditions: person, 2000 as printed
Method: This concerns a person with metastatic disease from a sarcoma of their right atrium who was treated beginning August, 2000 by using conventional protocols.

[4] = system: human mesothelioma cells; conditions: cited from earlier work
[5] = system: leukemic cells in peripheral blood; conditions: cited from earlier work
[6] = system: leukemic cells; conditions: cells from peripheral blood and marrow of leukemia patients; cited from earlier work
[7] = system: drug-resistant K562 cells; conditions: cited from earlier work
[8] = system: drug-resistant HL60 cells; conditions: cited from earlier work
[9] = system: normal or transferrin receptor-negative cells; conditions: cited from earlier work
[10] = nude mice; cited from earlier work

O=C(O)CCCc1ccc(N(CCCl)CCCl)cc1 [chlorambucil]
survival of treated mice [1]: died

COc1cccc2c1C(=O)c1c(O)c3c(c(O)c1C2=O)C[C@@](O)(C(=O)CO)C[C@@H]3O[C@H]1C[C@H](N)[C@H](O)[C@H](C)O1 [doxorubicin, reference compound]
inhibition of NADH-oxidase [2]: efficient inhibitor

human transferrin-chlorambucil conjugates: human transferrin conjugated to chlorambucil, reference 51
survival of treated mice [1]: survived | toxicity compared with free chlorambucil ([1]; mice): less toxic

transferrin-doxorubicin conjugates
radiological evidence of tumor ([3]; by January): no radiological evidence of tumor | metastatic lesions of the lungs ([3]; treatment begun November 2000, by January): substantially cleared | survival compared with free doxorubicin ([4]; nude mice bearing drug-resistant human tumors): survive longer | life prolongation compared to animals treated only with doxorubicin ([4]; nude mice, human mesothelioma cells): significantly prolonged life | inhibition of NADH-oxidase [2]: inhibit | decrease of number of leukemic cells in peripheral blood ([5]; 7 patients, within 10-days following therapy): 86% | extension of disease by bone marrow biopsies before and after treatment ([5]; acute leukemia patients): no extension of disease | toxic effects ([5]; seven acute leukemia patients, 1 mg/day intravenously for 5 days): no toxic effects | selective killing of leukemic cells [6]: kill selectively | killing of cells resistant to doxorubicin [7]: effective in killing | killing of cells resistant to doxorubicin [8]: effective in killing | binding to cells [9]: do not bind

B1: neocarzinostatin (protein, UniProt P0A3R9 35-147, looked up)
Neocarzinostatin: AAPTATVTPSSGLSDGTVVKVAGAGLQAGTAYDVGQCAWVDTGVLACNPADFSSVTADANGSASTSLTVRRSFEGFLFDGTRWGTVDCTTAACQVGLSDAAGNGPEGVAISFN
modifications: with enediyne chromophore
half-life [10]: 7 min
